Test system: PANC-1 (human pancreatic cancer-derived cell line)
Assay: MTS assay on Panc-1 (human pancreas carcinoma cell line)
Type: cell-based
Conditions: 144 h; for inhibition at 10 µM / inhibition at 1 µM / inhibition at 2.5 µM: PANC-1, MTS, 6 days; for inhibition at 10 µM: read-out: Growth inhibition (%) 10 μM; for IC50: PANC-1, MTS method, cell survival 6 days after exposure, 4-parameter logistic fit; for inhibition at 1 µM: read-out: Growth inhibition (%) 1 μM; for inhibition at 2.5 µM: read-out: Growth inhibition (%) 2.5 μM
Procedure, shortened: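 Viability measured by MTS 6 days after treating human pancreatic carcinoma PANC-1 cells with compound serially diluted 2-fold in DMSO; absorbance 492–630 nm normalized to solvent control. Triplicate measurements averaged and fitted to a 4-parameter logistic curve.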

| Structure (SMILES) | inhibition at 10 µM [%] | IC50 [nM] | inhibition at 1 µM [%] | inhibition at 2.5 µM [%] |
| --- | --- | --- | --- | --- |
| CC(C)C[C@H]1ON(C(=O)/C=C/c2cccc(=O)[nH]2)[C@H]2CN(C3CCN(C)CC3)C(=O)[C@H](CC(C)C)N2C1=O [ID-51, (3R,6S,9aS)-3,6-diisobutyl-8-(1-methylpiperidin-4-yl)-1-((E)-3-(6-oxo-1,6-dihydropyridin-2-yl)acryloyl)tetrahydropyrazino[2,1-c][1,2,4]oxadiazine-4,7(3H,6H)-dione] | 47.5 |  |  |  |
| CC(C)C[C@H]1ON(C(=O)/C=C/c2nc3cc(F)ccc3s2)[C@H]2CN(C3CCN(C)CC3)C(=O)[C@H](CC(C)C)N2C1=O [ID-52, (3R,6S,9aS)-1-((E)-3-(5-fluorobenzo[d]thiazol-2-yl)acryloyl)-3,6-diisobutyl-8-(1-methylpiperidin-4-yl)tetrahydropyrazino[2,1-c][1,2,4.]oxadiazine-4,7(3H,6H)-dione] | 101 | 480 |  |  |
| CC(C)C[C@H]1ON(C(=O)/C=C/c2ncco2)[C@H]2CN(C3CCN(C)CC3)C(=O)[C@H](CC(C)C)N2C1=O [ID-53, (3R,6S,9aS)-3,6-diisobutyl-8-(1-methylpiperidin-4-yl)-1-((E)-3-(oxazol-2-yl)acryloyl)tetrahydropyrazino[2,1-c] [1,2,4]oxadiazine-4,7(3H,6H)-dione] | 100 | 1200 |  |  |
| CC(C)C[C@H]1ON(C(=O)/C=C/c2cscn2)[C@H]2CN(C3CCN(C)CC3)C(=O)[C@H](CC(C)C)N2C1=O [ID-54, (3R,6S,9aS)-3,6-diisobutyl-8-(1-methylpiperidin-4-yl)-1-((E)-3-(thiazol-4-yl)acryloyl)tetrahydropyrazino[2,1-c] [1,2,4]oxadiazine-4,7(3H,6H)-dione] | 57 |  |  |  |
| CC(C)C[C@H]1ON(C(=O)/C=C/c2ncc(Cl)cn2)[C@H]2CN(C3CCN(C)CC3)C(=O)[C@H](CC(C)C)N2C1=O [ID-55, (3R,6S,9aS)-1-((E)-3-(5-chloropyrimidin-2-yl)acryloyl)-3,6-diisobutyl-8-(1-methylpiperidin-4-yl)tetrahydropyrazino[2,1-c][1,2,4]oxadiazine-4,7(3H,6H)-dione] | 99.8 | 460 |  |  |
| CC(C)C[C@H]1ON(C(=O)/C=C/c2csc(N3CCOCC3)n2)[C@H]2CN(C3CCN(C)CC3)C(=O)[C@H](CC(C)C)N2C1=O [ID-56, (3R,6S,9aS)-3,6-diisobutyl-8-(1-methylpiperidin-4-yl)-1-((E)-3-(2-morpholinothiazol-4-yl)acryloyl)tetrahydropyrazino[2,1-c][1,2,4]oxadiazine-4,7 (3H, 6H)-dione] | 95.3 |  |  |  |
| CC(C)C[C@H]1ON(C(=O)/C=C/c2ccccn2)[C@H]2CN(C3CCN(C)CC3)C(=O)[C@H](CCCCNCc3ccccc3)N2C1=O [ID-57, (3R,6S,9aS)-6-(4-(benzylamino)butyl)-3-isobutyl-8-(1-methylpiperidin-4-yl)-1-((E)-3-(pyridin-2-yl)acryloyl)tetrahydropyrazino[2,1-c][1,2,4]oxadiazine-4,7(3H,6H)-dione] | 101 | 1000 |  |  |
| CC(C)C[C@H]1C(=O)N(C2CCN(C)CC2)C[C@@H]2N(C(=O)/C=C/c3nc4ccccc4s3)c3ccccc3C(=O)N21 [ID-58, (4S,11aS)-11-((E)-3-(benzo[d]thiazol-2-yl)acryloyl)-4-isobutyl-2-(1-methylpiperidin-4-yl)-1,2,11,11a-tetrahydro-6H-pyrazino[2,1-b]quinazoline-3,6(4H)-dione] |  | 560 | 78.4 |  |
| CN1CCC(N2C[C@@H]3N(C(=O)/C=C/c4nc5ccccc5s4)c4ccc(F)cc4C(=O)N3[C@@H](CCCCN(C)C3CCN(C(=O)OC(C)(C)C)CC3)C2=O)CC1 [ID-59, tert-butyl 4-((4-((4S,11aS)-11-((E)-3-(benzo[d]thiazol-2-yl)acryloyl)-8-fluoro-2-(1-methylpiperidin-4-yl)-3,6-dioxo-1,3,4,6,11,11a-hexahydro-2H-pyrazino[2,1-b]quinazolin-4-yl)butyl) (methyl)amino)piperidine-1-carboxylate] |  | 550 | 98.8 |  |
| CSCC[C@H]1C(=O)N(C2CCN(C)CC2)C[C@@H]2N(C(=O)/C=C/c3nc4ccccc4s3)O[C@H](CC(C)C)C(=O)N21 [ID-60, (3R,6S,9aS)-1-((E)-3-(benzo[d]thiazol-2-yl)acryloyl)-3-isobutyl-8-(1-methylpiperidin-4-yl)-6-(2-(methylthio)ethyl)tetrahydropyrazino[2,1-c][1,2,4]oxadiazine-4,7(3H,6H)-dione] | 93.7 | 270 |  |  |
| CC(C)C[C@H]1ON(C(=O)/C=C/c2ccccn2)[C@H]2CN(C3CCN(C)CC3)C(=O)[C@H](Cc3ccc(O)cc3)N2C1=O [ID-61, (3R,6S,9aS)-6-(4-hydroxybenzyl)-3-isobutyl-8-(1-methylpiperidin-4-yl)-1-((E)-3-(pyridin-2-yl)acryloyl)tetrahydropyrazino[2,1-c][1,2,4]oxadiazine-4,7(3H,6H)-dione] |  | 7300 |  |  |
| CC(C)C[C@H]1ON(C(=O)/C=C/c2ccccn2)[C@H]2CN(C3CCN(C4CCOCC4)CC3)C(=O)[C@H](CC(C)C)N2C1=O [ID-62, (3R,6S,9aS)-3,6-diisobutyl-1-((E)-3-(pyridin-2-yl)acryloyl)-8-(1-(tetrahydro-2H-pyran-4-yl)piperidin-4-yl)tetrahydropyrazino[2,1-c][1,2,4]oxadiazine-4,7(3H,6H)-dione] |  | 3400 |  |  |
| CC(C)C[C@H]1ON(C(=O)/C=C/c2ccccn2)[C@H]2CN(C3CCN(C4CCCCC4)CC3)C(=O)[C@H](CC(C)C)N2C1=O [ID-63, (3R,6S,9aS)-8-(1-cyclohexylpiperidin-4-yl)-3,6-diisobutyl-1-((E)-3-(pyridin-2-yl)acryloyl)tetrahydropyrazino[2,1-c][1,2,4]oxadiazine-4,7(3H,6H)-dione] |  | 1400 |  |  |
| CC(C)C[C@H]1ON(C(=O)/C=C/c2nc3ccccc3s2)[C@H]2CN(C3CCOCC3)C(=O)[C@H](CC(C)C)N2C1=O [ID-64, (3R,6S,9aS)-1-((E)-3-(benzo[d]thiazol-2-yl)acryloyl)-3,6-diisobutyl-8-(tetrahydro-2H-pyran-4-yl)tetrahydropyrazino[2,1-c][1,2,4]oxadiazine-4,7(3H,6H)-dione] |  | 880 |  |  |
| CC(C)C[C@H]1ON(C(=O)/C=C/c2ccccn2)[C@H]2CN(C3CCCN(C)C3)C(=O)[C@H](CC(C)C)N2C1=O (stereo partly drawn) [ID-65, (3R,6S,9aS)-3,6-diisobutyl-8-(1-methylpiperidin-3-yl)-1-((E)-3-(pyridin-2-yl)acryloyl)tetrahydropyrazino[2,1-c][1,2,4]oxadiazine-4,7(3H,6H)-dione] | 96.5 | 4700 |  |  |
| CC(C)C[C@H]1ON(C(=O)/C=C/c2ccccn2)[C@H]2CN(C3CCN(C)CC3)C(=O)[C@H](Cc3ccccc3)N2C1=O [ID-66, (3R,6S,9aS)-6-benzyl-3-isobutyl-8-(1-methylpiperidin-4-yl)-1-((E)-3-(pyridin-2-yl)acryloyl)tetrahydropyrazino[2,1-c][1,2,4]oxadiazine-4,7(3H,6H)-dione] | 96.7 | 5200 |  |  |
| CC(C)C[C@H]1ON(C(=O)/C=C/c2ccccn2)[C@H]2CN(C3CCCN(C)CC3)C(=O)[C@H](CC(C)C)N2C1=O (stereo partly drawn) [ID-67, (3R,6S,9aS)-3,6-diisobutyl-8-(1-methylazepan-4-yl)-1-((E)-3-(pyridin-2-yl)acryloyl)tetrahydropyrazino[2,1-c][1,2,4]oxadiazine-4,7(3H,6H)-dione] | 100 | 3300 |  |  |
| CC(C)C[C@H]1ON(C(=O)/C=C/c2ccccn2)[C@H]2CN(C3CCC(N)CC3)C(=O)[C@H](CC(C)C)N2C1=O (stereo partly drawn) [ID-68, (3R,6S,9aS)-8-(4-aminocyclohexyl)-3,6-diisobutyl-1-((E)-3-(pyridin-2-yl)acryloyl)tetrahydropyrazino[2,1-c][1,2,4]oxadiazine-4,7(3H,6H)-dione] |  | 2800 |  |  |
| CC(C)C[C@H]1ON(C(=O)/C=C/c2ccccn2)[C@H]2CN(C3CCC(N(C)C)CC3)C(=O)[C@H](CC(C)C)N2C1=O (stereo partly drawn) [ID-69, (3R,6S,9aS)-8-(4-(dimethylamino)cyclohexyl)-3,6-diisobutyl-1-((E)-3-(pyridin-2-yl)acryloyl)tetrahydropyrazino[2,1-c][1,2,4]oxadiazine-4,7(3H,6H)-dione] |  | 2800 |  |  |
| CC(C)C[C@H]1ON(C(=O)/C=C/c2ccccn2)[C@H]2CN(C3CC4CCC(C3)N4C)C(=O)[C@H](CC(C)C)N2C1=O (stereo partly drawn) [ID-70, (3R,6S,9aS)-3,6-diisobutyl-8-(8-methyl-8-azabicyclo[3.2.1]octan-3-yl)-1-((E)-3-(pyridin-2-yl)acryloyl)tetrahydropyrazino[2,1-c][1,2,4]oxadiazine-4,7(3H,6H)-dione] |  | 2500 |  |  |
| CC(C)C[C@H]1ON(C(=O)/C=C/c2ccc(C(F)(F)F)cn2)[C@H]2CN(C3CCN(C)CC3)C(=O)[C@H](CC(C)C)N2C1=O [ID-71, (3R,6S,9aS)-3,6-diisobutyl-8-(1-methylpiperidin-4-yl)-1-((E)-3-(5-(trifluoromethyl)pyridin-2-yl)acryloyl)tetrahydropyrazino[2,1-c][1,2,4]oxadiazine-4,7(3H,6H)-dione] |  |  |  | 97.3 |
| COc1ccc(/C=C/C(=O)N2O[C@H](CC(C)C)C(=O)N3[C@@H]2CN(C2CCN(C)CC2)C(=O)[C@@H]3CC(C)C)nc1 [ID-72, (3R,6S,9aS)-3,6-diisobutyl-1-((E)-3-(5-methoxypyridin-2-yl)acryloyl)-8-(1-methylpiperidin-4-yl)tetrahydropyrazino[2,1-c][1,2,4]oxadiazine-4,7(3H,6H)-dione] |  |  |  | 37 |

— patent publication US20230265104A1, “NOVEL HETEROCYCLIC COMPOUNDS” (PRISM BIOLAB CO., LTD., priority 2020, published 2023)
